# Test results taken from patent publication US20250179032A1, “HETEROCYCLIC INHIBITORS OF GLUT9 FOR TREATMENT OF DISEASE” (HORIZON THERAPEUTICS IRELAND DAC, priority 2022, published 2025).
# Molecular target: T1, H. sapiens SLC2A9 variant 2 (GLUT9B) (Homo sapiens, UniProt Q9NRM0)
# T1 sequence (Q9NRM0 1-511 isoform Q9NRM0-2): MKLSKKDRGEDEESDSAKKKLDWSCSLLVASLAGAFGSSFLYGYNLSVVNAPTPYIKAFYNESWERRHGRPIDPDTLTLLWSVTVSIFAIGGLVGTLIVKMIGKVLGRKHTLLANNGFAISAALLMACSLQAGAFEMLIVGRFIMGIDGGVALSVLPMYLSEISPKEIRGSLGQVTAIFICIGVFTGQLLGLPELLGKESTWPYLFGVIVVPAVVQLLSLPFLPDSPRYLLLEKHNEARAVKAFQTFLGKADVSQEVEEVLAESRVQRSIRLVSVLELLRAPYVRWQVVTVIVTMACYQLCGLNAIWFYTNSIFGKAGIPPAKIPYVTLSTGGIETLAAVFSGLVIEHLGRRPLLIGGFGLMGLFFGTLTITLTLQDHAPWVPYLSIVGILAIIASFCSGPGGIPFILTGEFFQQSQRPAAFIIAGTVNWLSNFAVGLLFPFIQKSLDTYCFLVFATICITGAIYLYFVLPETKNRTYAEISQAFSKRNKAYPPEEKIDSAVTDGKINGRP
# Assay: GLUT9 functional assay: uric acid uptake in HEK293T cells, allantoin formation by MS/MS as proxy of GLUT9B inhibition
# Assay type: cell-based
# Conditions: 15 minute assay; HEK293T cells stably expressing GLUT9B and transiently A. oryzae uricase; uric acid 0.3 mM, 37° C.; read-out: 15 min IC50
# How it was run: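 Inhibition of GLUT9B-mediated urate uptake read as reduced allantoin formation, measured by MS/MS against allantoin standards in HEK293T matrix with log-logistic fitting. Stable GLUT9B HEK293T cells carrying transfected A. oryzae uricase were incubated 15 or 60 min at 37° C with uric acid at Km (0.3 mM), pH 7.4 gluconate buffer.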
row,Compound,IC50
1,"COCCCc1cnc(-c2cc(C(F)(F)F)c3occc3c2)c(N2CCC(C(=O)O)CC2)n1 [Compound 237, 1-(6-(3-methoxypropyl)-3-(7-(trifluoromethyl)benzofuran-5-yl)pyrazin-2-yl)piperidine-4-carboxylic acid]",> 2000 nM

# Same assay, conditions: 60 minute assay; HEK293T cells stably expressing GLUT9B and transiently A. oryzae uricase; uric acid 0.3 mM, 37° C.; read-out: 60 min IC50
row,Compound,IC50
1,"COCCCc1cnc(-c2cc3sccc3s2)c(N2CCC(C(=O)O)CC2)n1 [Compound 203, 1-(6-(3-methoxypropyl)-3-(thieno[3,2-b]thiophen-2-yl)pyrazin-2-yl)piperidine-4-carboxylic acid]",> 2000 nM
2,"COCCCc1cnc(-c2ccc3nsnc3c2)c(N2CCC(C(=O)O)CC2)n1 [Compound 204, 1-(3-(benzo[c][1,2,5]thiadiazol-5-yl)-6-(3-methoxypropyl)pyrazin-2-yl)piperidine-4-carboxylic acid]",> 2000 nM
3,"COCCCc1cnc(-c2ccc3nccn3c2)c(N2CCC(C(=O)O)CC2)n1 [Compound 205, 1-(3-(imidazo[1,2-a]pyridin-6-yl)-6-(3-methoxypropyl)pyrazin-2-yl)piperidine-4-carboxylic acid]",> 2000 nM
4,"COCCCc1cnc(-c2cnn3c2CCCC3)c(N2CCC(C(=O)O)CC2)n1 [Compound 206, 1-(6-(3-methoxypropyl)-3-(4,5,6,7-tetrahydropyrazolo[1,5-a]pyridin-3-yl)pyrazin-2-yl)piperidine-4-carboxylic acid]",> 2000 nM
5,"COCCCc1cnc(-c2ccc3cncn3c2)c(N2CCC(C(=O)O)CC2)n1 [Compound 207, 1-(3-(imidazo[1,5-a]pyridin-6-yl)-6-(3-methoxypropyl)pyrazin-2-yl)piperidine-4-carboxylic acid]",> 2000 nM
6,"COCCCc1cnc(-c2ccn3ccnc3c2)c(N2CCC(C(=O)O)CC2)n1 [Compound 208, 1-(3-(imidazo[1,2-a]pyridin-7-yl)-6-(3-methoxypropyl)pyrazin-2-yl)piperidine-4-carboxylic acid]",> 2000 nM
7,"COCCCc1cnc(-c2cnn3c2OCCC3)c(N2CCC(C(=O)O)CC2)n1 [Compound 209, 1-(3-(6,7-dihydro-5H-pyrazolo[5,1-b][1,3]oxazin-3-yl)-6-(3-methoxypropyl)pyrazin-2-yl)piperidine-4-carboxylic acid]",> 2000 nM
8,"COCCCc1cnc(-c2cnc3sccc3c2)c(N2CCC(C(=O)O)CC2)n1 [Compound 210, 1-(6-(3-methoxypropyl)-3-(thieno[2,3-b]pyridin-5-yl)pyrazin-2-yl)piperidine-4-carboxylic acid]",500 to 2000 nM
9,"COCCCc1cnc(-c2ccc3nccn3n2)c(N2CCC(C(=O)O)CC2)n1 [Compound 211, 1-(3-(imidazo[1,2-b]pyridazin-6-yl)-6-(3-methoxypropyl)pyrazin-2-yl)piperidine-4-carboxylic acid]",> 2000 nM
10,"COCCCc1cnc(-c2ccn3ncnc3c2)c(N2CCC(C(=O)O)CC2)n1 [Compound 212, 1-(3-([1,2,4]triazolo[1,5-a]pyridin-7-yl)-6-(3-methoxypropyl)pyrazin-2-yl)piperidine-4-carboxylic acid]",> 2000 nM
11,"COCCCc1cnc(-c2cccc3cn(C)nc23)c(N2CCC(C(=O)O)CC2)n1 [Compound 213, 1-(6-(3-methoxypropyl)-3-(2-methyl-2H-indazol-7-yl)pyrazin-2-yl)piperidine-4-carboxylic acid]",> 2000 nM
12,"COCCCc1cnc(-c2ccnc3c2ccn3C)c(N2CCC(C(=O)O)CC2)n1 [Compound 214, 1-(6-(3-methoxypropyl)-3-(1-methyl-1H-pyrrolo[2,3-b]pyridin-4-yl)pyrazin-2-yl)piperidine-4-carboxylic acid]",> 2000 nM
13,"COCCCc1cnc(-c2cccc3nn(C)cc23)c(N2CCC(C(=O)O)CC2)n1 [Compound 215, 1-(6-(3-methoxypropyl)-3-(2-methyl-2H-indazol-4-yl)pyrazin-2-yl)piperidine-4-carboxylic acid]",> 2000 nM
14,"COCCCc1cnc(-c2cnc3c(c2)NCCO3)c(N2CCC(C(=O)O)CC2)n1 [Compound 216, 1-(3-(2,3-dihydro-1H-pyrido[2,3-b][1,4]oxazin-7-yl)-6-(3-methoxypropyl)pyrazin-2-yl)piperidine-4-carboxylic acid]",> 2000 nM
15,"COCCCc1cnc(-c2cnc3c(cnn3C)c2)c(N2CCC(C(=O)O)CC2)n1 [Compound 217, 1-(6-(3-methoxypropyl)-3-(1-methyl-1H-pyrazolo[3,4-b]pyridin-5-yl)pyrazin-2-yl)piperidine-4-carboxylic acid]",> 2000 nM
16,"COCCCc1cnc(-c2cnc3nn(C)cc3c2)c(N2CCC(C(=O)O)CC2)n1 [Compound 218, 1-(6-(3-methoxypropyl)-3-(2-methyl-2H-pyrazolo[3,4-b]pyridin-5-yl)pyrazin-2-yl)piperidine-4-carboxylic acid]",> 2000 nM

row,Compound,IC50
1,"COCCCc1cnc(-c2cnc3c(c2)ncn3C)c(N2CCC(C(=O)O)CC2)n1 [Compound 219, 1-(6-(3-methoxypropyl)-3-(3-methyl-3H-imidazo[4,5-b]pyridin-6-yl)pyrazin-2-yl)piperidine-4-carboxylic acid]",> 2000 nM
2,"COCCCc1cnc(-c2ccnc3cc(OC)ccc23)c(N2CCC(C(=O)O)CC2)n1 [Compound 221, 1-(6-(3-methoxypropyl)-3-(7-methoxyquinolin-4-yl)pyrazin-2-yl)piperidine-4-carboxylic acid]",> 2000 nM
3,"COCCCc1cnc(-c2ccnc3cc(F)c(OC)cc23)c(N2CCC(C(=O)O)CC2)n1 [Compound 222, 1-(3-(7-fluoro-6-methoxyquinolin-4-yl)-6-(3-methoxypropyl)pyrazin-2-yl)piperidine-4-carboxylic acid]",> 2000 nM
4,"COCCCc1cnc(-c2cc3ccoc3c(F)c2F)c(N2CCC(C(=O)O)CC2)n1 [Compound 223, 1-(3-(6,7-difluorobenzofuran-5-yl)-6-(3-methoxypropyl)pyrazin-2-yl)piperidine-4-carboxylic acid]",< 500 nM
5,"COCCCc1cnc(-c2cc(Cl)c3occc3c2)c(N2CCC(C(=O)O)CC2)n1 [Compound 224, 1-(3-(7-chlorobenzofuran-5-yl)-6-(3-methoxypropyl)pyrazin-2-yl)piperidine-4-carboxylic acid]",< 500 nM
6,"COCCCc1cnc(-c2cc(F)c3sccc3c2)c(N2CCC(C(=O)O)CC2)n1 [Compound 225, 1-(3-(7-fluorobenzo[b]thiophen-5-yl)-6-(3-methoxypropyl)pyrazin-2-yl)piperidine-4-carboxylic acid]",< 500 nM
7,"COCCCc1cnc(-c2ccc3sccc3c2)c(N2CCC(C(=O)O)CC2)n1 [Compound 226, 1-(3-(benzo[b]thiophen-5-yl)-6-(3-methoxypropyl)pyrazin-2-yl)piperidine-4-carboxylic acid]",< 500 nM
8,"COCCCCc1cnc(-c2cc(F)c3occc3c2)c(N2CCC(C(=O)O)CC2)n1 [Compound 227, 1-(3-(7-fluorobenzofuran-5-yl)-6-(4-methoxybutyl)pyrazin-2-yl)piperidine-4-carboxylic acid]",< 500 nM
9,"COCCCCCc1cnc(-c2cc(F)c3occc3c2)c(N2CCC(C(=O)O)CC2)n1 [Compound 228, 1-(3-(7-fluorobenzofuran-5-yl)-6-(5-methoxypentyl)pyrazin-2-yl)piperidine-4-carboxylic acid]",< 500 nM
10,"COCCCc1cnc(-c2ccc(S(C)(=O)=O)cc2)c(N2CCC(C(=O)O)CC2)n1 [Compound 230, 1-(6-(3-methoxypropyl)-3-(4-(methylsulfonyl)phenyl)pyrazin-2-yl)piperidine-4-carboxylic acid]",< 500 nM
11,"COCCCc1cnc(-c2ccc3c(c2)COC3=O)c(N2CCC(C(=O)O)CC2)c1 [Compound 232, 1-(5-(3-methoxypropyl)-2-(1-oxo-1,3-dihydroisobenzofuran-5-yl)pyridin-3-yl)piperidine-4-carboxylic acid]",< 500 nM
12,"COCCCc1cnc(-c2ccc3c(c2)CCS3(=O)=O)c(N2CCC(C(=O)O)CC2)n1 [Compound 233, 1-(3-(1,1-dioxido-2,3-dihydrobenzo[b]thiophen-5-yl)-6-(3-methoxypropyl)pyrazin-2-yl)piperidine-4-carboxylic acid]",> 2000 nM
13,"COCCCc1cnc(-c2ccc3c(c2)CCCS3(=O)=O)c(N2CCC(C(=O)O)CC2)n1 [Compound 234, 1-(3-(1,1-dioxidothiochroman-6-yl)-6-(3-methoxypropyl)pyrazin-2-yl)piperidine-4-carboxylic acid]",> 2000 nM
14,"COCCCc1cnc(-c2cc(OC(F)(F)F)c3occc3c2)c(N2CCC(C(=O)O)CC2)n1 [Compound 238, 1-(6-(3-methoxypropyl)-3-(7-(trifluoromethoxy)benzofuran-5-yl)pyrazin-2-yl)piperidine-4-carboxylic acid]",500 to 2000 nM
15,"COCCCc1cnc(-c2cc(C)c3occc3c2)c(N2CCC(C(=O)O)CC2)n1 [Compound 239, 1-(6-(3-methoxypropyl)-3-(7-methylbenzofuran-5-yl)pyrazin-2-yl)piperidine-4-carboxylic acid]",< 500 nM
16,"COCCCc1cnc(-c2cc(C(F)F)c3occc3c2)c(N2CCC(C(=O)O)CC2)n1 [Compound 240, 1-(3-(7-(difluoromethyl)benzofuran-5-yl)-6-(3-methoxypropyl)pyrazin-2-yl)piperidine-4-carboxylic acid]",< 500 nM
